Our source for the TGI and GI50 values is PubChem BioAssay (NCI).

Among the test systems are IGROV1 ovarian; K-562 leukemia; LOX IMVI melanoma; OVCAR-3 ovarian; RPMI-8226 leukemia; SF-268 CNS; CAKI-1 renal; MCF7 breast; MDA-MB-435.
Common to all, as to assay: growth of human tumour cells (NCI), 48 h

Structures are written as SMILES.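 Cells were grown in 96-well plates and exposed to each compound for 48 hours at five concentrations; endpoints were interpolated linearly between bracketing concentrations, or set to the highest concentration if not reached. GI50: concentration for 50% inhibition of growth. TGI: concentration producing complete growth inhibition.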

As for `CN1C(=O)CNS1(=O)=O`, the TGI in the assay with IGROV1 ovarian, in the assay on K-562 leukemia, in the assay on LOX IMVI melanoma, with OVCAR-3 ovarian, with RPMI-8226 leukemia and in the assay on SF-268 CNS was above 100 µM each time.
`Nc1nc(N)c2cc(Sc3ccc(Cl)cc3)ccc2n1`: the GI50 with CAKI-1 renal is 3.25 µM; in the assay with IGROV1 ovarian, 874 nM; in the assay with K-562 leukemia it was 286 nM; in the assay with LOX IMVI melanoma, 350 nM; in the assay with MCF7 breast it was 1160 nM; in the assay on MDA-MB-435, 403 nM. Moreover, the GI50 in the assay with OVCAR-3 ovarian was 3.5 µM; in the assay on RPMI-8226 leukemia it was 1950 nM; with SF-268 CNS it was 898 nM. In addition, the TGI with CAKI-1 renal amounted to 16.1 µM; in the assay on IGROV1 ovarian, 18.7 µM; in the assay on K-562 leukemia, 1.86 µM; in the assay with LOX IMVI melanoma, 4.07 µM; in the assay with MCF7 breast it was 2790 nM; with MDA-MB-435, 1910 nM. For the same compound, the values for the TGI in the assay with OVCAR-3 ovarian, in the assay on RPMI-8226 leukemia and in the assay with SF-268 CNS were 12.6 µM, 4.99 µM and 18 µM, respectively.
Turning to `COC1OC(CO)C(O)C(NC(=O)N(C)N=O)C1O` (configuration not stated), the TGI in the assay with CAKI-1 renal, in the assay on IGROV1 ovarian, with K-562 leukemia, in the assay with OVCAR-3 ovarian, in the assay on RPMI-8226 leukemia and with SF-268 CNS was above 100 µM throughout.
Take `CN1C[C@@H]2CC(=O)CC[C@@H]2C[C@H]1C#N`: the TGI in the assay with CAKI-1 renal, in the assay on IGROV1 ovarian, in the assay on K-562 leukemia, in the assay on LOX IMVI melanoma, with OVCAR-3 ovarian and with RPMI-8226 leukemia was above 100 µM each time. Moreover, the TGI in the assay with SF-268 CNS is above 100 µM.
On to `Cc1cc2c(=O)cc(-c3ccc(Cl)c(Cl)c3)oc2c(C(=O)O)c1C`, for which the TGI in the assay on CAKI-1 renal, with IGROV1 ovarian, in the assay on K-562 leukemia, in the assay with LOX IMVI melanoma, with OVCAR-3 ovarian and in the assay with RPMI-8226 leukemia was above 100 µM in each case. The compound also returned a TGI in the assay with SF-268 CNS above 100 µM.
With `c1ccc2c(CNCCCN3CCN(CCCNCc4cccc5ccccc45)CC3)cccc2c1`, the TGI with CAKI-1 renal came to 4.02 µM; in the assay on IGROV1 ovarian it was 10.1 µM; with LOX IMVI melanoma it was 2.67 µM; in the assay with OVCAR-3 ovarian, 9.53 µM; in the assay on SF-268 CNS it was 6.11 µM.
Consider `N#CCC(=O)N/N=C(/C(=O)Nc1ccccc1)C1C(=O)N(c2ccccc2)N=C1N` (configuration not stated), for which the TGI in the assay on CAKI-1 renal, in the assay on IGROV1 ovarian, in the assay on K-562 leukemia, in the assay with LOX IMVI melanoma, in the assay on OVCAR-3 ovarian and in the assay on RPMI-8226 leukemia was above 100 µM in each case. In the assay on SF-268 CNS, this compound came in with a TGI above 100 µM.
As to `CN(CC(=O)O)S(=O)(=O)c1ccc(Cl)cc1`, the TGI in the assay on CAKI-1 renal, in the assay on IGROV1 ovarian, with K-562 leukemia, with LOX IMVI melanoma, in the assay with OVCAR-3 ovarian and in the assay on RPMI-8226 leukemia was above 100 µM each time. Also, the TGI with SF-268 CNS is above 100 µM.
Regarding `CC(=O)Nc1ccc(S(=O)(=O)N/N=C/c2cc(I)cc([N+](=O)[O-])c2O)cc1`, the TGI with CAKI-1 renal, with IGROV1 ovarian, with K-562 leukemia, with LOX IMVI melanoma, with OVCAR-3 ovarian and in the assay with RPMI-8226 leukemia was above 100 µM in each case. Also, the TGI with SF-268 CNS was above 100 µM.
As to `Cc1cc2c(=O)cc(-c3ccc(Cl)cc3Cl)oc2c(C(=O)O)c1C`, the TGI in the assay with CAKI-1 renal, in the assay with IGROV1 ovarian, with K-562 leukemia, in the assay on LOX IMVI melanoma, in the assay with OVCAR-3 ovarian and with RPMI-8226 leukemia was above 100 µM throughout. Further, the TGI in the assay with SF-268 CNS was above 100 µM.
As for `Cc1ccccc1C(C#N)/C(=N/NC(N)=S)C(=O)Nc1c(C)cccc1C` (configuration not stated), the TGI with IGROV1 ovarian, with LOX IMVI melanoma, in the assay with OVCAR-3 ovarian, in the assay with RPMI-8226 leukemia and in the assay with SF-268 CNS was above 100 µM each time.
`Cc1ccc(S(=O)OC2c3ccccc3Cc3ccccc32)cc1` (configuration not stated): the TGI with CAKI-1 renal was 56.3 µM; in the assay with IGROV1 ovarian it was 45.6 µM; in the assay on K-562 leukemia, 62.1 µM; in the assay on LOX IMVI melanoma it was 28.8 µM; in the assay on OVCAR-3 ovarian, 44.5 µM; in the assay on RPMI-8226 leukemia it was above 100 µM. The same compound yielded a TGI with SF-268 CNS of 47.1 µM.
In the case of `S=c1sc2sc(=S)sc2s1`, the TGI in the assay with CAKI-1 renal, with IGROV1 ovarian, in the assay with K-562 leukemia, in the assay with LOX IMVI melanoma, in the assay with RPMI-8226 leukemia and in the assay with SF-268 CNS was above 100 µM in each case.
`CCOc1ccc(N=C2NC(=O)C(CC(=O)Nc3ccc(Cl)cc3Cl)S2)cc1` (configuration not stated): the TGI with CAKI-1 renal, in the assay with IGROV1 ovarian, with K-562 leukemia, with LOX IMVI melanoma, with OVCAR-3 ovarian and in the assay with RPMI-8226 leukemia was above 100 µM throughout. In the assay with SF-268 CNS, this compound returned a TGI above 100 µM.
Regarding `CNC(=O)N(CCCC(NC(C)=O)C(=O)NCc1ccccc1)Cc1ccccc1` (configuration not stated), the TGI in the assay with CAKI-1 renal, in the assay on IGROV1 ovarian, in the assay with K-562 leukemia, in the assay with LOX IMVI melanoma, in the assay on OVCAR-3 ovarian and in the assay with RPMI-8226 leukemia was above 100 µM each time. The TGI in the assay with SF-268 CNS was above 100 µM.
Take `Cc1ccc(NC(=O)CC2SC(=Nc3cccc(Cl)c3C)NC2=O)cc1` (configuration not stated): the TGI in the assay with CAKI-1 renal, with IGROV1 ovarian, with K-562 leukemia, in the assay with LOX IMVI melanoma, in the assay with OVCAR-3 ovarian and in the assay with RPMI-8226 leukemia was above 100 µM throughout. In addition, the TGI in the assay with SF-268 CNS was above 100 µM.
For the compound `Cc1cc2c(=O)cc(-c3ccc(C(=O)O)cc3)oc2c(C(N)=O)c1C`, the TGI with IGROV1 ovarian, in the assay with K-562 leukemia, with LOX IMVI melanoma, in the assay on OVCAR-3 ovarian, in the assay on RPMI-8226 leukemia and in the assay on SF-268 CNS was above 100 µM each time.
